Like-named read-outs stand apart in the source and are kept apart here.
What was measured:
A. baumannii 1757 [1] = experiment: Zebrafish larvae infection model; conditions: rifampicin / erythromycin experiment (Table S8); infected larvae, caudal vein injection, five days post infection; mean of three independent experiments
Protocol: Transparent Casper zebrafish (Danio rerio) larvae were infected and treated according to protocols described by Van der Sar et al. and Bernard et al. [43, 44]. In short, zebrafish larvae collected from a laboratory-breeding colony kept at 24 °C and a 12:12 h dark/light regime. Larvae were selected based on morphology according to hours post fertilization (hpf) and kept at 28 °C. All protocols followed the international guidelines on the protection of animals used for scientific purposes specified by the EU Directive 2010/63/EU, which allows zebrafish larvae to be used up to the moment of free-living (5–7 dpf). Larvae were dechorionated at 28 hpf and anaesthetized in 0.2% tricaine methanesulfonate (MS222, Fluka A-5040). Larvae were individually infected with 1 nL, containing approximately 100–150 CFU (1–1.5 CFU/mL), of Gram-negative bacteria via microinjection of the caudal vein as described previously [33]. One hour post infection, larvae were treated with cationic (stapled) peptides, antibiotics or a combination of the two via another microinjection of 1 nL in the caudal vein. […] Zebrafish larvae were kept at 30 °C throughout the experiment and survival of the larvae, based on heartbeat, was determined every 24 h for 5 days.

zebrafish larvae = experiment: Toxicity in zebrafish larvae (survival after caudal vein injection); conditions: survival of uninfected larvae vs vehicle (50% DMSO), five days
Protocol: Transparent Casper zebrafish (Danio rerio) larvae were infected and treated according to protocols described by Van der Sar et al. and Bernard et al. [43, 44]. In short, zebrafish larvae collected from a laboratory-breeding colony kept at 24 °C and a 12:12 h dark/light regime. Larvae were selected based on morphology according to hours post fertilization (hpf) and kept at 28 °C. All protocols followed the international guidelines on the protection of animals used for scientific purposes specified by the EU Directive 2010/63/EU, which allows zebrafish larvae to be used up to the moment of free-living (5–7 dpf). Larvae were dechorionated at 28 hpf and anaesthetized in 0.2% tricaine methanesulfonate (MS222, Fluka A-5040). Larvae were individually infected with 1 nL, containing approximately 100–150 CFU (1–1.5 CFU/mL), of Gram-negative bacteria via microinjection of the caudal vein as described previously [33]. One hour post infection, larvae were treated with cationic (stapled) peptides, antibiotics or a combination of the two via another microinjection of 1 nL in the caudal vein. To correct dilution of the treatment upon injection in the vein (1 nL in 250 nL zebrafish larvae volume), treatments were diluted in 0.1% phenol red (Sigma-Aldrich, p-0290) in phosphate buffered saline (PBS) to 250 times the concentration as tested in vitro. Zebrafish larvae were kept at 30 °C throughout the experiment and survival of the larvae, based on heartbeat, was determined every 24 h for 5 days.

E. coli 31 = experiment: MIC / checkerboard synergy assay; type: cell-based; conditions: Escherichia coli, 31, 12 h; read-out: MIC (compound alone)
Protocol: (§1) Minimum inhibitory concentrations of the peptides and antibiotics were determined according to the protocol described by Wiegand et al.. Briefly, two-fold dilution series of cationic peptides in 50 µL volume of LB broth containing 2% DMSO were made in polypropylene 96-well microtiter plates (Ratiolab, L6018123, Dreieich, Germany). The optical density at 600 nm (OD600) of growing bacterial cultures was followed, and at mid-log-phase (OD600 ~0.4–0.5) cultures were diluted to OD600 0.02 and 50 µL was added to the wells, resulting in a total volume of 100 µl, an OD600 of ~0.01 and a DMSO concentration of 1%. An OD600 of ~0.01 accounted for approximately 3 × 10^8 colony forming units per mL (CFU/mL) for A. baumannii, 1 × 10^7 CFU/mL for E. coli and 5 × 10^7 CFU/mL for K. pneumoniae as determined by plate counting.
(§2) In a similar manner, two-fold dilution series of antibiotics were made in polystyrene microtiter plates (Costar, REF3779, Corning NY, United States) in 70 µL volume of LB broth. […] Mid-log phase cultures were diluted to OD600 0.1 and 10 µL culture was added to each well of the microtiter plate, resulting in a total volume of 110 µL and an OD600 of ~0.01 (~3 × 10^8 CFU/mL), and the OD600 was measured every 15 min for 12 h using the microplate reader. First, the MIC values of the antibiotics alone and the MIC values of the peptides alone were determined as described previously. […]

K. pneumoniae 94 = experiment: MIC / checkerboard synergy assay; type: cell-based, Klebsiella pneumoniae; conditions: Klebsiella pneumoniae, 94, 12 h; read-out: MIC (compound alone)
Protocol: as §1
(§3) In a similar manner, two-fold dilution series of antibiotics were made in polystyrene microtiter plates (Costar, REF3779, Corning NY, United States) in 70 µL volume of LB broth. Then, 50 µL of the antibiotic series was transferred to the peptide containing polypropylene plate, resulting in a checkerboard titration of a peptide on the vertical axis and an antibiotic on the horizontal axis. To some checkerboard assays 15 µg/mL isolated smooth (sm) LPS (from E. coli O55:B5, Sigma-Aldrich, L2880), rough (Ra) LPS (from E. coli EH100, Sigma-Aldrich, L9641) or deep rough (Rd) LPS (from E. coli F583, Sigma-Aldrich, L6893) LPS was added to the LB broth. Mid-log phase cultures were diluted to OD600 0.1 and 10 µL culture was added to each well of the microtiter plate, resulting in a total volume of 110 µL and an OD600 of ~0.01 (~3 × 10^8 CFU/mL), and the OD600 was measured every 15 min for 12 h using the microplate reader. First, the MIC values of the antibiotics alone and the MIC values of the peptides alone were determined as described previously. Similarly, the MIC values of the antibiotics in combination with the different peptides and the MIC values of the peptides in combination with the antibiotics were determined (the fractional inhibitory concentrations (FIC)). […] An FICindex between 0.5 and 1 was considered to be an additive effect.

K. pneumoniae 821 = experiment: MIC / checkerboard synergy assay; type: cell-based, Klebsiella pneumoniae; conditions: Klebsiella pneumoniae, 821, 12 h; read-out: MIC (compound alone)
Protocol: as §1, §3

K. pneumoniae 613 = experiment: MIC / checkerboard synergy assay; type: cell-based, Klebsiella pneumoniae; conditions: Klebsiella pneumoniae, 613, 12 h; read-out: MIC (compound alone)
Protocol: as §1, §3

A. baumannii 1681 = experiment: MIC / checkerboard synergy assay; type: cell-based, Acinetobacter baumannii; conditions: Acinetobacter baumannii, 1681, 12 h; read-out: MIC (compound alone)
Protocol: as §1, §3

A. baumannii 2196 = experiment: MIC / checkerboard synergy assay; type: cell-based, Acinetobacter baumannii; conditions: Acinetobacter baumannii, 2196, 12 h; read-out: MIC (compound alone)
Protocol: as §1, §3

E. coli gsk12 = experiment: MIC / checkerboard synergy assay; type: cell-based, Escherichia coli
Protocol: as §1, §2

A. baumannii 1757 [2] = experiment: MIC / checkerboard synergy assay (also with added LPS); type: cell-based, Acinetobacter baumannii
Protocol: as §1, §3

Row | Compound | Survival (%) (A. baumannii 1757 [1]) | Log2FoldChange compared to vehicle injected (zebrafish larvae) | MIC (E. coli 31) [µM] | MIC (K. pneumoniae 94) [µM] | MIC (K. pneumoniae 821) [µM] | MIC (K. pneumoniae 613) [µM] | MIC (A. baumannii 1681) [µM] | MIC (A. baumannii 2196) [µM] | MIC (E. coli gsk12; Escherichia coli, GSK12, 12 h, read-out: MIC (compound alone)) [µM] | MIC (compound alone) (E. coli gsk12; compound alone, LB broth, MIC = 90% of growth prevented, OD600 over 12 h, mean ± SD) [µM] | MIC (A. baumannii 1757 [2]; Acinetobacter baumannii, 1757, 12 h, read-out: MIC (compound alone)) [µM] | MIC (A. baumannii 1757 [2]; Acinetobacter baumannii, 1757, LB medium with soluble deep rough LPS 15 µg/ml, mean ± SD, read-out: MIC, + Rd-LPS (F583)) [µM] | MIC (A. baumannii 1757 [2]; Acinetobacter baumannii, 1757, LB medium with soluble rough LPS 15 µg/ml, mean ± SD, read-out: MIC, + Ra-LPS (EH100)) [µM] | MIC (A. baumannii 1757 [2]; Acinetobacter baumannii, 1757, LB medium with soluble smooth LPS 15 µg/ml, mean ± SD, read-out: MIC, + Sm-LPS (055:B5)) [µM] | MIC (A. baumannii 1757 [2]; Acinetobacter baumannii, 1757, LB medium without supplement (Table S4), mean ± SD, read-out: MIC, No supplement) [µM]
1 | CC[C@H]1OC(=O)[C@H](C)[C@@H](O[C@H]2C[C@@](C)(OC)[C@@H](O)[C@H](C)O2)[C@H](C)[C@@H](O[C@@H]2O[C@H](C)C[C@H](N(C)C)[C@H]2O)[C@](C)(O)C[C@@H](C)C(=O)[C@H](C)[C@@H](O)[C@]1(C)O [Erythromycin, erythromycin] | 0.01 |  |  |  |  |  |  |  |  |  |  |  |  |  | 
2 | CN[C@H](CC(C)C)C(=O)N[C@H]1C(=O)N[C@@H](CC(N)=O)C(=O)N[C@H]2C(=O)N[C@H]3C(=O)N[C@H](C(=O)N[C@H](C(=O)O)c4cc(O)cc(O)c4-c4cc3ccc4O)[C@H](O)c3ccc(c(Cl)c3)Oc3cc2cc(c3O[C@@H]2O[C@H](CO)[C@@H](O)[C@H](O)[C@H]2O[C@H]2C[C@](C)(N)[C@H](O)[C@H](C)O2)Oc2ccc(cc2Cl)[C@H]1O [Vancomycin, vancomycin] |  | -0.26 | 24.5 ± 8.81 | 263 ± 180 | 197 ± 194 | 269 ± 140 | 19 ± 4.56 | 34.7 ± 24 | 78.7 ± 5.3 | 78.65 ± 5.3 | 5.98 ± 4.55 | 5.66 ± 4.15 | 9.86 ± 7.36 | 5.88 ± 3.56 | 3.03 ± 2.52

From article PMC8868297, “Stapling of Peptides Potentiates the Antibiotic Treatment of Acinetobacter baumannii In Vivo” (Antibiotics, 2022)
